Assay results as given in patent US20220151962A1, “NOVEL INHIBITORS OF HISTONE DEACETYLASE 10” (Deutsches Krebsforschungszentrum, priority 2019, published 2022).
Where “and” joins values, the source holds several entries; their conditions need not be identical. Equal values may be shown once. Read-outs that look alike come from different tables or passages of the source.

What was measured:
[1] = target: T1, HDAC2 (Homo sapiens, UniProt Q92769); assay: HDAC-Glo I/II assay, HDAC2; assay type: biochemical; settings: recombinant human HDAC2, HDAC-Glo; read-out: pIC50 HDAC2 Glo (converted)
T1 construct: purchased BPS Bioscience 50002

[2] = target: T2, HDAC8 (Homo sapiens, UniProt Q9BY41); assay: HDAC-Glo I/II assay, HDAC8; assay type: biochemical; set-up: purchased BPS Bioscience 50008; settings: recombinant human HDAC8, HDAC-Glo; read-out: pIC50 HDAC8 Glo (converted)
T2 sequence (Q9BY41 1-377): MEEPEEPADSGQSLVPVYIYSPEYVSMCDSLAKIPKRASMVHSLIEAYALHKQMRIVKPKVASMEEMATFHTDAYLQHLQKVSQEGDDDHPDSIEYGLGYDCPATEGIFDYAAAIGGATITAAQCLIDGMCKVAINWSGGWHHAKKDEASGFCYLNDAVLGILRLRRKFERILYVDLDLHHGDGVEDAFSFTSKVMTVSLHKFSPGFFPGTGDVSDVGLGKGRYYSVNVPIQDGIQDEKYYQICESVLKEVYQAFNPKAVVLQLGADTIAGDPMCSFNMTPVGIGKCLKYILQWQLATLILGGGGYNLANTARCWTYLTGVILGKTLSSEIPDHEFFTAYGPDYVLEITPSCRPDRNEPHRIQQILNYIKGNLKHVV

[3] = target: T3, TwinStrep-GST-HDAC10 (Homo sapiens, UniProt Q969S8); assay: HDAC10 TR-FRET assay (Tubastatin-AF647-Tracer displacement); assay type: binding
T3 construct: made in house; host or cells: Sf21 insect cells (baculovirus, pFastBac1)
T3 sequence (Q969S8 1-669): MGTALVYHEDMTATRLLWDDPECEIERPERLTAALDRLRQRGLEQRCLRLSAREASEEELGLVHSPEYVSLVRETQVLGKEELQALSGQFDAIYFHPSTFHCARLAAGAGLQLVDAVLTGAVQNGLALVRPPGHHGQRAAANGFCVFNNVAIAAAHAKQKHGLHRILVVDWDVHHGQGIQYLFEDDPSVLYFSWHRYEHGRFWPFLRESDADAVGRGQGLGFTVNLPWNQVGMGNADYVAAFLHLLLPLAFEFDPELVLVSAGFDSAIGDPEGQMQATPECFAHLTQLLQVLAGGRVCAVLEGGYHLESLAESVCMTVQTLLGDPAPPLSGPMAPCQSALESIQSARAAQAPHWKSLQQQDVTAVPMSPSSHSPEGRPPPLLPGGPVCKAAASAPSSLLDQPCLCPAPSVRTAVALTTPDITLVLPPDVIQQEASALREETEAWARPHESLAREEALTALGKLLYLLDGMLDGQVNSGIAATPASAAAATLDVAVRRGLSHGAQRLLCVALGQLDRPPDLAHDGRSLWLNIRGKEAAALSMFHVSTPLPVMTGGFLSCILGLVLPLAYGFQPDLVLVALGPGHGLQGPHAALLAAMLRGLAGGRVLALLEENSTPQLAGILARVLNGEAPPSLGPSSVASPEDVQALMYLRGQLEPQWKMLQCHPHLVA

[4] = target: T4, HDAC3/NcoR2 complex (Homo sapiens, UniProt O15379); assay: HDAC-Glo I/II assay, HDAC3/NcoR2 complex; assay type: biochemical; settings: recombinant human HDAC3/NcoR2 complex, read-out: pIC50 HDAC3 Glo (converted)
T4 construct: purchased BPS Bioscience 50003

[5] = target: T5, HDAC10-nanoluciferase fusion in HeLa cells (Homo sapiens, UniProt Q969S8); assay: BRET intracellular target engagement assay, HDAC10
T5 sequence (Q969S8 1-669): T3 sequence (Q969S8 1-669)

[6] = target: T6, HDAC1 (Homo sapiens, UniProt Q13547); assay: HDAC-Glo I/II assay, HDAC1; assay type: biochemical; settings: recombinant human HDAC1, HDAC-Glo; read-out: pIC50 HDAC1 Glo (converted)
T6 construct: purchased BPS Bioscience 50051

[7] = target: T7, HDAC6 (Homo sapiens, UniProt Q9UBN7); assay: HDAC-Glo I/II assay, HDAC6; assay type: biochemical; settings: recombinant human HDAC6, HDAC-Glo; read-out: pIC50 HDAC6 Glo (converted)
T7 construct: purchased BPS Bioscience 50006
T7 sequence (Q9UBN7 1-1215): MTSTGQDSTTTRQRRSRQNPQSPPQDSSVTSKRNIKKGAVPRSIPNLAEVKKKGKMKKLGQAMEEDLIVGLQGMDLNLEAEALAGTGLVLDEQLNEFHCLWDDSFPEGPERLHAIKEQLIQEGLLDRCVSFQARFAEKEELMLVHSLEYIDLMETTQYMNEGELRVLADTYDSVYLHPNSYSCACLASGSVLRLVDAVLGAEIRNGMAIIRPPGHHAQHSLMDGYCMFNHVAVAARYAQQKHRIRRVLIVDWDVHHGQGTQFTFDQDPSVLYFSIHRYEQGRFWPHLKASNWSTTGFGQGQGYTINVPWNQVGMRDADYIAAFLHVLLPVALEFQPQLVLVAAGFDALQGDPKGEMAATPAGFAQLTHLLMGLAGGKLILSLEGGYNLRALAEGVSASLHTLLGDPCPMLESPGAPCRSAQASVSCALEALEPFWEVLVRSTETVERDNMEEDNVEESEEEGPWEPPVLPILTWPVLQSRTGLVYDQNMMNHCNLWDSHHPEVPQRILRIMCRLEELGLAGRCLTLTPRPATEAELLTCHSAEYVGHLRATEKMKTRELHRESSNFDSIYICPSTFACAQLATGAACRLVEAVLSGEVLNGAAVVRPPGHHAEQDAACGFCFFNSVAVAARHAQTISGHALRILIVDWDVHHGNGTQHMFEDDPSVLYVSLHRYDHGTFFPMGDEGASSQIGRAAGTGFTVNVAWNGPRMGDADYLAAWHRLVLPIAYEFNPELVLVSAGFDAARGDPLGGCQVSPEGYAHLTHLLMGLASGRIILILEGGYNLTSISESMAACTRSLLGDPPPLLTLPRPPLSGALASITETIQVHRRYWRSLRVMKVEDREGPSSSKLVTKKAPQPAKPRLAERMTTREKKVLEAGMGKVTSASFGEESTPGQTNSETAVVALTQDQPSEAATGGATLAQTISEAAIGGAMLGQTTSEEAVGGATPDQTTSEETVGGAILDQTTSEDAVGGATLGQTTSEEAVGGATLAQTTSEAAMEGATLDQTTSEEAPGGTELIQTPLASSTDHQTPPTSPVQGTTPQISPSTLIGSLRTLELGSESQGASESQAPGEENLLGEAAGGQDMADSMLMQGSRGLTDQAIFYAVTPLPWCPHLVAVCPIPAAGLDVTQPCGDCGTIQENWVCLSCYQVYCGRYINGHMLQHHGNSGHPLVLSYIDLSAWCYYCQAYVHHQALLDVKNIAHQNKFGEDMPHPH

[8] = target: T7, HDAC6; assay: HDAC6 (ZMAL) fluorogenic activity assay; assay type: biochemical
[9] = target: T8, zebrafish HDAC10 (Danio rerio, UniProt F1QCV2); assay: Zebrafish HDAC10 assay (zHDAC10), Ac-spermidine-AMC substrate; assay type: biochemical; settings: for inhibition at 0.1 µM / inhibition at 1 µM / inhibition at 10 µM: read-out: zHDAC10 percent enzyme inhibition
T8 sequence (F1QCV2 1-675): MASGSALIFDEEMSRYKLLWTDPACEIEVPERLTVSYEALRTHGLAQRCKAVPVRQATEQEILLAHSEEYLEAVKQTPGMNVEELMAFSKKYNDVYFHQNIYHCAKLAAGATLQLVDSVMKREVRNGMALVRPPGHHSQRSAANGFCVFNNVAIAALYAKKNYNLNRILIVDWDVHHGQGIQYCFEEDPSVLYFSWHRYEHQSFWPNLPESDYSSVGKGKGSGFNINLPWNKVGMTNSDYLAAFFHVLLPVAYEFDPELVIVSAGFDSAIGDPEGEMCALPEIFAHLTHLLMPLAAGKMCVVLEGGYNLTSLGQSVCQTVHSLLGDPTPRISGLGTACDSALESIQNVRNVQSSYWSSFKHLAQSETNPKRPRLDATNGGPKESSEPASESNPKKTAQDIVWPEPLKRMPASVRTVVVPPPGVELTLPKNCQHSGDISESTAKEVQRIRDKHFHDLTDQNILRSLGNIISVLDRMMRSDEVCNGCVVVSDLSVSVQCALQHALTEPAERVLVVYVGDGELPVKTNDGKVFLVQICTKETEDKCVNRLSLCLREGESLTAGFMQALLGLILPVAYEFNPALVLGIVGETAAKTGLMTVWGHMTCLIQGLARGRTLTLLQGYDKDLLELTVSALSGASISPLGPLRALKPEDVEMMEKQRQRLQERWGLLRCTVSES

[10] = target: T2, HDAC8; assay: HDAC8 (FDL) Fluor de Lys assay; assay type: biochemical; set-up: obtained from C; Romier (academic laboratory, not a vendor); settings: for inhibition at 1 µM / inhibition at 10 µM: read-out: HDAC8 (FDL) percent enzyme inhibition
[11] = target: T6, HDAC1; assay: HDAC1 (ZMAL) fluorogenic activity assay; assay type: biochemical; settings: read-out: HDAC1 (ZMAL) percent enzyme inhibition
[12] = TR-FRET, 60 min at rt, read-out: pIC50 HDAC10 FRET (converted)
[13] = read-out: HDAC6 (ZMAL) percent enzyme inhibition
[14] = two separate measurements, each made in triplicate, read-out: HDAC10 FRET IC50

T6 sequence (Q13547 whole entry): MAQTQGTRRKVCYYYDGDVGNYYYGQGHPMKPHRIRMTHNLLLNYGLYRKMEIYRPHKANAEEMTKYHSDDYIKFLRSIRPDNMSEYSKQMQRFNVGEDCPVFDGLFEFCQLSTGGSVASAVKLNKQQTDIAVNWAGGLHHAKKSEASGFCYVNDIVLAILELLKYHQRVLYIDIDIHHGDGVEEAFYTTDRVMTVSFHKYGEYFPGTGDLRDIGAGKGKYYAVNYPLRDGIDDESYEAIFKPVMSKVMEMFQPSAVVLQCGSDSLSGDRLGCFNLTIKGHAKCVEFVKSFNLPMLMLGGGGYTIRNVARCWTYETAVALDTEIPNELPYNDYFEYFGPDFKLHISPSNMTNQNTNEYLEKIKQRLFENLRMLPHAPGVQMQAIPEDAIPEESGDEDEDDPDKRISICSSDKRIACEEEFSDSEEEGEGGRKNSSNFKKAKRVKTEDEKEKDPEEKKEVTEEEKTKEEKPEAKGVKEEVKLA
T1 sequence (Q92769 whole entry): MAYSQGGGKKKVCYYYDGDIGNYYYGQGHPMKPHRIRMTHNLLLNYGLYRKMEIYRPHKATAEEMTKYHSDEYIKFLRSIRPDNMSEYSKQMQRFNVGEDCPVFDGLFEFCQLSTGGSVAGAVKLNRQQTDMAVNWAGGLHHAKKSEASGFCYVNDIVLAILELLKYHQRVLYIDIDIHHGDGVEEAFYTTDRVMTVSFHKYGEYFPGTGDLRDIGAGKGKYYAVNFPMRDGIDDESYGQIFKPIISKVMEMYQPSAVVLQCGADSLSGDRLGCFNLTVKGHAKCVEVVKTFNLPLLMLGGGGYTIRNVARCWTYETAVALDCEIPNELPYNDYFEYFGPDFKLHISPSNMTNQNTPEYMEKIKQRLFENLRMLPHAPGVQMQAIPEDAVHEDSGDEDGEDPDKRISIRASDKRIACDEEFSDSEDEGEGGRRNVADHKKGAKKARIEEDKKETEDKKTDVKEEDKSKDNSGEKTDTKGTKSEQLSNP
T4 sequence (O15379 whole entry): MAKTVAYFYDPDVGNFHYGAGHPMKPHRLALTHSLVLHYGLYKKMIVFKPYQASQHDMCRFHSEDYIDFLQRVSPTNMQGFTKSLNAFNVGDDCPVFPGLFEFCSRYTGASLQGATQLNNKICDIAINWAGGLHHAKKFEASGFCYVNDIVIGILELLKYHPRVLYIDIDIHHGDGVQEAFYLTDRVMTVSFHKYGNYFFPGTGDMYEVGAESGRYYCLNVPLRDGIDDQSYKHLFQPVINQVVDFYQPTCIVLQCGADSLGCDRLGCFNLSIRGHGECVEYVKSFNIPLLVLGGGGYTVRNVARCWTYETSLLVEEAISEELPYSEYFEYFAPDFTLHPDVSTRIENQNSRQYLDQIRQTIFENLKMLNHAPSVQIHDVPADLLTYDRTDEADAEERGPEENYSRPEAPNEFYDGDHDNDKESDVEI
T4 sequence (Q9Y618 395-489 partner limits assumed): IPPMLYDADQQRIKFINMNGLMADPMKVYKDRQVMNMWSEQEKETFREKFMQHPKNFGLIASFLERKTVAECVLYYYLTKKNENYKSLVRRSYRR

| SMILES | IC50 [1] [µM] | IC50 [2] [µM] | IC50 [3, 12] [nM] | IC50 [4] [µM] | IC50 [6] [µM] | IC50 [7] [µM] | inhibition at 1 µM [11] [%] | inhibition at 10 µM [11] [%] | inhibition at 1 µM [8, 13] [%] | inhibition at 10 µM [8, 13] [%] | inhibition at 0.1 µM [9] [%] | inhibition at 1 µM [9] [%] | inhibition at 10 µM [9] [%] | inhibition at 1 µM [10] [%] | inhibition at 10 µM [10] [%] | IC50 [3, 14] | other results |
| --- | --- | --- | --- | --- | --- | --- | --- | --- | --- | --- | --- | --- | --- | --- | --- | --- | --- |
| CN(CCCC(=O)NO)CCc1nc2ccccc2[nH]1 [DKFZ-773, 4-((2-(Benzimidazol-2-yl)ethyl)(methyl)amino)-N-hydroxybutanamide] | 25.1 | 5.01 | 6.31 | > 100 | 10 | 1 | – | – | – | – | – | – | – | – | – | – | IC50 [5]: 126 nM; HDAC10/6 fold selectivity (BRET) ([5]; HDAC10 over HDAC6, from BRET): 315 fold |
| O=C(NO)C1CCN(CCNCc2ccc(Br)cc2)CC1 [DH88, 1-(2-((4-Bromobenzyl)amino)ethyl)-N-hydroxypiperidine-4-carboxamide] | – | – | – | – | – | – | -8 | 10 | – | – | – | – | – | – | – | – | IC50 [8]: 15 ± 4 µM; IC50 [9]: 37 ± 4 nM; IC50 [10]: 700 ± 50 nM |
| O=C(NO)C1CCN(CCCc2ccccc2)CC1 [DH53, N-Hydroxy-1-(3-phenylpropyl)-piperidine-4-carboxamide] | – | – | – | – | – | – | 2 | 29 | -23 | -3 | 0 | 19 | 68 | 20 | 48 | – | – |
| O=C(NO)C1CCN(Cc2ccccc2)CC1 [DH25, 1-Benzyl-N-hydroxypiperidine-4-carboxamide] | – | – | – | – | – | – | 8 | 18 | 22 | 46 | 9 | 15 | 50 | 36 | 61 | 2450 nM and 3430 nM | – |
| O=C(NO)C1CCN(CCNCc2ccccc2)CC1 [DH79, 1-(2-(Benzylamino)ethyl)-N-hydroxypiperidine-4-carboxamide] | – | – | – | – | – | – | 6 | 20 | -15 | 0 | – | – | – | – | – | – | IC50 [9]: 64 ± 6 nM; IC50 [10]: 2000 ± 300 nM |
| O=C(NO)C1CCN(CC(c2ccccc2)c2ccccc2)CC1 [DH40, 1-(2,2-Diphenylethyl)-N-hydroxypiperidine-4-carboxamide] | – | – | – | – | – | – | -7 | 8 | 19 | 65 | 1 | 9 | 27 | 42 | 75 | 2320 nM and 2970 nM | inhibition at 50 µM ([8]; at 50 μM, read-out: HDAC6 (ZMAL) percent enzyme inhibition): 88%; inhibition at 50 µM ([11]; at 50 μM): 24% |
| O=C(NO)C1CCN(Cc2ccc(-c3ccccc3)cc2)CC1 [DH35, 1-([1,1′-Biphenyl]-4-ylmethyl)-N-hydroxypiperidine-4-carboxamide] | – | – | – | – | – | – | 5 | 35 | 11 | 57 | 7 | 24 | 69 | 37 | 70 | 1780 nM and 2560 nM | – |
| Cc1[nH]c2ccccc2c1CC(=O)NCCN(C)CCCC(=O)NO [DKFZ-749, N-Hydroxy-4-(methyl(2-(2-(2-methyl-1H-indol-3-yl)acetamido)ethyl)amino)butanamide] | > 100 | 2.51 | 79.4 | > 100 | 10 | 3.16 | – | – | – | – | – | – | – | – | – | – | – |
| CN(CCCC(=O)NO)CCNC(=O)c1ccccc1O [DKFZ-755, 2-Hydroxy-N-(2-((4-(hydroxyamino)-4-oxobutyl)(methyl)amino)ethyl)benzamide] | > 100 | 63.1 | 31.6 | > 100 | 63.1 | 12.6 | – | – | – | – | – | – | – | – | – | – | – |
